Measurements: patent US8747537B2, “Ink containing heterocyclic azo dye, and dye for use in said ink” (Mitsubishi Chemical Corporation, priority 2010, dated 2014)

Experiments:
[1] = Solubility test in low-polarity solvents (saturated solution, λmax, solubility, εC); format: physicochemical; details: for Solubility: saturated solution
Protocol: The solubility of each dye in n-decane, tetradecane, Isopar M, Isopar G, and decalin was examined in the following manner. Each dye was added to each solvent until a dissolution residue came to remain, and this mixture was subjected to a 30-minute ultrasonic treatment at 30 degrees. The resultant mixture was allowed to stand at 5° C. for 24 hours and then subjected to centrifugal filtration (centrifugal force, 5,200×g) with a 0.1-μm filter using a microcentrifuge. The saturated solution obtained was diluted to an adequate concentration, and the solubility of each dye was calculated from a relationship with an extinction coefficient determined beforehand. Furthermore, the value of the product of the molar extinction coefficient ε (Lmol^−1cm^−1) and the concentration C (molL^−1) of the saturated solution, εC, was determined.
Sudan Black B (manufactured by Tokyo Kasei Kogyo Co., Ltd.), which is a commercial oil-soluble black dye, was added to n-decane until a dissolution residue came to remain, and this mixture was subjected to a 30-minute ultrasonic treatment at 30 degrees. The resultant mixture was allowed to stand at 5° C. for 24 hours and then subjected to centrifugal filtration (centrifugal force, 5,200×g) with a 0.1-μm filter using a microcentrifuge. The saturated n-decane solution obtained was diluted to an adequate concentration, and the solubility of the dye was calculated from a relationship with an extinction coefficient determined beforehand.

[2] = Light fastness test (retention of dye after 2 hours of high-pressure mercury lamp irradiation); format: physicochemical; details: 1 mg in 250 mL, 2 hours irradiation
Protocol: The light fastness of each dye was examined in the following manner. One milligram of each dye was dissolved in 250 mL of each of n-decane, tetradecane, Isopar M, and Isopar G, and the solution was irradiated with light for 2 hours using photoreaction apparatus UVL-400HA (400-W high-pressure mercury lamp), manufactured by Riko-Kagaku Sangyo Co., Ltd. During the irradiation, the vessel was cooled with a coolant to keep the internal temperature at 10-30° C. The retention of the dye was determined through the following calculation to evaluate the light fastness. Retention of dye=(absorbance at absorption-maximum wavelength after irradiation)/(absorbance at absorption-maximum wavelength before irradiation)

[3] = n-decane, stood at 5° C. for 24 hours, 0.1-μm filter
[4] = n-decane, 400-W high-pressure mercury lamp

CCOC(=O)c1sc(/N=N/c2ccc(N(CC(C)C)CC(C)C)cc2C)c(C(=O)OCC)c1C [Dye 18]
εC (molar extinction coefficient × concentration of saturated solution) ([1]; n-decane): 1000 cm⁻¹ | λmax (absorption-maximum wavelength) ([1]; n-decane solution): 498 nm | Solubility [1, 3]: 1.7%

C=Cn1c(N=Nc2ccc(N(CCCC)CCCC)cc2NC(C)=O)nc(C#N)c1C#N [Comparative dye 3, reference compound]
εC ([1]; Isopar G): ≦10 cm^−1 | Solubility ([1]; Isopar G): ≦0.01% | εC ([1]; Isopar M): ≦10 cm^−1 | Solubility ([1]; Isopar M): ≦0.01% | εC ([1]; decalin): ≦10 cm^−1 | λmax (absorption-maximum wavelength) ([1]; decalin solution): 520 nm | Solubility ([1]; decalin): ≦0.01% | εC (molar extinction coefficient × concentration of saturated solution) ([1]; n-decane): ≦10 cm^−1 | Solubility [1, 3]: ≦0.01% | εC ([1]; tetradecane): ≦10 cm^−1 | Solubility ([1]; tetradecane): ≦0.01% | Light fastness: retention of dye [2, 4]: 76%

CCCCc1nsc(/N=N/c2ccc(N(CC(CC)CCCC)CC(CC)CCCC)cc2C)c1C#N (centres unmarked) [Dye 13]
εC (molar extinction coefficient × concentration of saturated solution) ([1]; n-decane): 3700 cm⁻¹ | λmax (absorption-maximum wavelength) ([1]; n-decane solution): 527 nm | Solubility [1, 3]: 5.9%

CCCCC(CC)CN(CC(CC)CCCC)c1ccc(/N=N/c2snc(C)c2C#N)c(C(C)C)c1 (centres unmarked) [Dye 15]
εC (molar extinction coefficient × concentration of saturated solution) ([1]; n-decane): 8300 cm⁻¹ | λmax (absorption-maximum wavelength) ([1]; n-decane solution): 535 nm | Solubility [1, 3]: 9.7%

CCCCC(CC)CN(CC(CC)CCCC)c1ccc(N=Nc2snc(CC)c2C#N)c(NC(C)=O)c1 (centres unmarked) [Dye 10]
εC ([1]; Isopar G): 18600 cm⁻¹ | λmax (absorption-maximum wavelength) ([1]; Isopar G solution): 542 nm | Solubility ([1]; Isopar G): 20% | εC ([1]; Isopar M): 18600 cm⁻¹ | λmax (absorption-maximum wavelength) ([1]; Isopar M solution): 542 nm | Solubility ([1]; Isopar M): 20% | εC ([1]; decalin): 6600 cm⁻¹ | λmax (absorption-maximum wavelength) ([1]; decalin solution): 546 nm | Solubility ([1]; decalin): 6.7% | εC (molar extinction coefficient × concentration of saturated solution) ([1]; n-decane): 17000 cm⁻¹ | λmax (absorption-maximum wavelength) ([1]; n-decane solution): 543 nm | Solubility [1, 3]: 20% | εC ([1]; tetradecane): 16700 cm⁻¹ | λmax (absorption-maximum wavelength) ([1]; tetradecane solution): 544 nm | Solubility ([1]; tetradecane): 19% | Light fastness: retention of dye [2, 4]: 99%

CCCCC(CC)CN(CC(CC)CCCC)c1ccc(/N=N/c2sc(C(=O)OCC)c(C)c2C(=O)OCC)c(C)c1 (centres unmarked) [Dye 6]
εC (molar extinction coefficient × concentration of saturated solution) ([1]; n-decane): 3200 cm⁻¹ | λmax (absorption-maximum wavelength) ([1]; n-decane solution): 504 nm | Solubility [1, 3]: 8.4%

CCCCC(CC)CN(CC(CC)CCCC)c1ccc(/N=N/c2snc(C)c2C#N)c(NC(=O)CC)c1 (centres unmarked) [Dye 9]
εC ([1]; Isopar G): 11500 cm⁻¹ | λmax (absorption-maximum wavelength) ([1]; Isopar G solution): 543 nm | Solubility ([1]; Isopar G): 13.3% | εC ([1]; Isopar M): 8900 cm⁻¹ | λmax (absorption-maximum wavelength) ([1]; Isopar M solution): 544 nm | Solubility ([1]; Isopar M): 9.8% | εC ([1]; decalin): 8500 cm⁻¹ | λmax (absorption-maximum wavelength) ([1]; decalin solution): 547 nm | Solubility ([1]; decalin): 9.1% | εC (molar extinction coefficient × concentration of saturated solution) ([1]; n-decane): 11000 cm⁻¹ | λmax (absorption-maximum wavelength) ([1]; n-decane solution): 543 nm | Solubility [1, 3]: 13% | εC ([1]; tetradecane): 7400 cm⁻¹ | λmax (absorption-maximum wavelength) ([1]; tetradecane solution): 544 nm | Solubility ([1]; tetradecane): 8.5%

CCCCC(CC)CN(CC(CC)CCCC)c1ccc(N=Nc2sc(C(=O)OCC)c(C)c2C(=O)OCC)c(NC(C)=O)c1 (centres unmarked) [Dye 3]
εC (molar extinction coefficient × concentration of saturated solution) ([1]; n-decane): 1300 cm⁻¹ | λmax (absorption-maximum wavelength) ([1]; n-decane solution): 537 nm | Solubility [1, 3]: 2.4% | Light fastness: retention of dye [2, 4]: 92%

CCc1nsc(N=Nc2ccc(N(CC(C)C)CC(C)C)cc2NC(C)=O)c1C#N [Dye 1]
εC (molar extinction coefficient × concentration of saturated solution) ([1]; n-decane): 1000 cm⁻¹ | λmax (absorption-maximum wavelength) ([1]; n-decane solution): 538 nm | Solubility [1, 3]: 1.1% | Light fastness: retention of dye [2, 4]: 97%

CCCCC(CC)CN(CC(CC)CCCC)c1ccc(/N=N/c2sc(C(=O)OCC)c(C)c2C(=O)OCC)c(NC(=O)CC)c1 (centres unmarked) [Dye 7]
εC ([1]; Isopar G): 6000 cm⁻¹ | λmax (absorption-maximum wavelength) ([1]; Isopar G solution): 535 nm | Solubility ([1]; Isopar G): 10% | εC ([1]; Isopar M): 6300 cm⁻¹ | λmax (absorption-maximum wavelength) ([1]; Isopar M solution): 536 nm | Solubility ([1]; Isopar M): 10% | εC (molar extinction coefficient × concentration of saturated solution) ([1]; n-decane): 5700 cm⁻¹ | λmax (absorption-maximum wavelength) ([1]; n-decane solution): 536 nm | Solubility [1, 3]: 10.3% | εC ([1]; tetradecane): 5400 cm⁻¹ | λmax (absorption-maximum wavelength) ([1]; tetradecane solution): 538 nm | Solubility ([1]; tetradecane): 9.7% | Light fastness: retention of dye ([2]; Isopar G): 98% | Light fastness: retention of dye ([2]; Isopar M): 87% | Light fastness: retention of dye [2, 4]: 98% | Light fastness: retention of dye ([2]; tetradecane): 81%

CCCCC(CC)CN(CC(CC)CCCC)c1cc(C)c(/N=N/c2snc(C)c2C#N)cc1OC (centres unmarked) [Dye 16]
εC (molar extinction coefficient × concentration of saturated solution) ([1]; n-decane): 2300 cm⁻¹ | λmax (absorption-maximum wavelength) ([1]; n-decane solution): 563 nm | Solubility [1, 3]: 3.7%

CCCCc1nsc(/N=N/c2ccc(N(CC(C)C)CC(C)C)cc2NC(C)=O)c1C#N [Dye 12]
εC (molar extinction coefficient × concentration of saturated solution) ([1]; n-decane): 4100 cm⁻¹ | λmax (absorption-maximum wavelength) ([1]; n-decane solution): 543 nm | Solubility [1, 3]: 5.7%

CCCCC(CC)CN(CC(CC)CCCC)c1ccc(/N=N/c2snc(CC)c2C#N)c(C)c1 (centres unmarked) [Dye 4]
εC ([1]; Isopar G): 4900 cm⁻¹ | λmax (absorption-maximum wavelength) ([1]; Isopar G solution): 526 nm | Solubility ([1]; Isopar G): 7.4% | εC ([1]; Isopar M): 6000 cm⁻¹ | λmax (absorption-maximum wavelength) ([1]; Isopar M solution): 530 nm | Solubility ([1]; Isopar M): 8.51% | εC ([1]; decalin): 5200 cm⁻¹ | λmax (absorption-maximum wavelength) ([1]; decalin solution): 534 nm | Solubility ([1]; decalin): 6.5% | εC (molar extinction coefficient × concentration of saturated solution) ([1]; n-decane): 5700 cm⁻¹ | λmax (absorption-maximum wavelength) ([1]; n-decane solution): 527 nm | Solubility [1, 3]: 6.6% | εC ([1]; tetradecane): 5200 cm⁻¹ | λmax (absorption-maximum wavelength) ([1]; tetradecane solution): 530 nm | Solubility ([1]; tetradecane): 6.8% | Light fastness: retention of dye ([2]; Isopar G): 98% | Light fastness: retention of dye ([2]; Isopar M): 95% | Light fastness: retention of dye [2, 4]: 96% | Light fastness: retention of dye ([2]; tetradecane): 82%

CCCCC(CC)CN(CC(CC)CCCC)c1ccc(/N=N/c2snc(C(C)C)c2C#N)c(C)c1 (centres unmarked) [Dye 14]
εC (molar extinction coefficient × concentration of saturated solution) ([1]; n-decane): 2800 cm⁻¹ | λmax (absorption-maximum wavelength) ([1]; n-decane solution): 527 nm | Solubility [1, 3]: 4.8%

CCCCC(CC)CNc1ccc(NCC(CC)CCCC)c2c1C(=O)c1ccccc1C2=O (centres unmarked) [Comparative dye 2, reference compound]
εC ([1]; Isopar G): 1200 cm⁻¹ | λmax (absorption-maximum wavelength) ([1]; Isopar G solution): 649 nm | Solubility ([1]; Isopar G): 4.3% | εC ([1]; Isopar M): 1000 cm⁻¹ | λmax (absorption-maximum wavelength) ([1]; Isopar M solution): 650 nm | Solubility ([1]; Isopar M): 3.6% | εC ([1]; decalin): 3400 cm⁻¹ | λmax (absorption-maximum wavelength) ([1]; decalin solution): 645 nm | Solubility ([1]; decalin): 9.98% | εC (in words) ([1]; each of the low-polarity solvents): small value | λmax (in words) ([1]; low-polarity solvents): large value | εC (molar extinction coefficient × concentration of saturated solution) ([1]; n-decane): 2000 cm⁻¹ | λmax (absorption-maximum wavelength) ([1]; n-decane solution): 652 nm | Solubility [1, 3]: 6.6% | εC ([1]; tetradecane): 1600 cm⁻¹ | λmax (absorption-maximum wavelength) ([1]; tetradecane solution): 651 nm | Solubility ([1]; tetradecane): 5.7% | Light fastness: retention of dye ([2]; Isopar G): 85% | Light fastness: retention of dye ([2]; Isopar M): 90% | Light fastness: retention of dye [2, 4]: 92% | Light fastness: retention of dye ([2]; tetradecane): 99%

CCCCC(CC)CN(CC)c1ccc(/N=N/c2snc(CC)c2C#N)c(NC(C)=O)c1 (centres unmarked) [Dye 11]
εC (molar extinction coefficient × concentration of saturated solution) ([1]; n-decane): 4300 cm⁻¹ | λmax (absorption-maximum wavelength) ([1]; n-decane solution): 535 nm | Solubility [1, 3]: 4.2%

CCCCC(CC)CN(CC(CC)CCCC)c1ccc(/N=N/c2sc(C(=O)OCC)c(C)c2C#N)c(CC)c1 (centres unmarked) [Dye 20]
εC (molar extinction coefficient × concentration of saturated solution) ([1]; n-decane): 6000 cm⁻¹ | λmax (absorption-maximum wavelength) ([1]; n-decane solution): 546 nm | Solubility [1, 3]: 9.7%

CCCCCCCCN(CC(CC)CCCC)c1ccc(/N=N/c2snc(C)c2C#N)c(C)c1 (centres unmarked) [Dye 5]
εC (molar extinction coefficient × concentration of saturated solution) ([1]; n-decane): 1300 cm⁻¹ | λmax (absorption-maximum wavelength) ([1]; n-decane solution): 523 nm | Solubility [1, 3]: 2.1%

CCCCC(CC)CN(CC(CC)CCCC)c1ccc(/N=N/c2snc(C)c2C#N)cc1 (centres unmarked) [Dye 17]
εC (molar extinction coefficient × concentration of saturated solution) ([1]; n-decane): 12000 cm⁻¹ | λmax (absorption-maximum wavelength) ([1]; n-decane solution): 523 nm | Solubility [1, 3]: 9.2%

CCCCC(CC)CN(CC(CC)CCCC)c1ccc(/N=N/c2snc(C)c2C#N)c(CC)c1 (centres unmarked) [Dye 8]
εC ([1]; Isopar G): 3600 cm⁻¹ | λmax (absorption-maximum wavelength) ([1]; Isopar G solution): 533 nm | Solubility ([1]; Isopar G): 5.17% | εC ([1]; Isopar M): 2500 cm⁻¹ | λmax (absorption-maximum wavelength) ([1]; Isopar M solution): 534 nm | Solubility ([1]; Isopar M): 3.4% | εC (molar extinction coefficient × concentration of saturated solution) ([1]; n-decane): 6500 cm⁻¹ | λmax (absorption-maximum wavelength) ([1]; n-decane solution): 533 nm | Solubility [1, 3]: 10% | εC ([1]; tetradecane): 2800 cm⁻¹ | λmax (absorption-maximum wavelength) ([1]; tetradecane solution): 534 nm | Solubility ([1]; tetradecane): 3.9%
